# Reference: patent US20250057808A1, “COMPOSITION COMPRISING BETA LACTAM FOR TREATING ALCOHOL DEPENDENCE AND ALCOHOL ASSOCIATED DISEASES OR CONDITIONS” (Temple University of the Commonwealth System of Higher …, priority 2023, published 2025)
# Entries after “also recorded” stand apart in the source; their conditions may differ.
# Legend:
# [1] = test system: GLT-1; assay: Immunoblot GLT-1 in mPFC-IL, mPFC-PL, NAc-core, NAc-shell (section B); format: in vivo, Male and female alcohol-preferring (P) rats; conditions: 100 mg/kg i.p. 5 days
# Procedure: After 24 hours of receiving the last injection, rats were euthanized by CO2 inhalation followed by decapitation with a guillotine. Brains were harvested and immediately frozen on dry ice and stored at −80° C. Cryostat (Leica) was used to isolate the mPFC subregions (mPFC-IL and mPFC-PL), and subregions of the NAc (NAc-core and NAc-shell). Brains were micro-punctured using the stereotaxic coordinates following the Rat Brain Atlas. The isolated brain regions were stored at −80° C. for subsequent protein detection using Western Blot assay.
# Immunoblot assays were performed to determine the expression of GLT-1, xCT and β-tubulin in mPFC-IL, mPFC-PL, NAc-core, and NAc-shell of all groups as described previously. Briefly, brain samples were homogenized in lysis buffer supplemented with protease inhibitor and total protein was quantified using protein assay (Bio-Rad, Hercules, CA, USA). Equal amount of the samples was loaded on polyacrylamide gel (10-20%).
# Subsequently, proteins were transferred on a PVDF membrane and blocked with 5% milk in Tris-buffered saline Tween-20 (1×TBST) for 30 minutes at room temperature. Membranes were then incubated overnight at 4° C. with one of the following antibodies: rabbit anti-GLT-1 (1:1000, Abcam, AB41621), and/or rabbit anti-xCT (1:1000, Abcam, AB175186). Mouse anti-β-tubulin (1:1000; Cell Signaling D71G5) was used as a loading control antibody. On the following day, membranes were washed five times with 1×TBST followed by incubation with appropriate secondary antibody (1:4000) for 60 minutes at room temperature. Chemiluminescent reagents (Super Signal West Pico, Pierce Inc.) were used to detect proteins using a ChemiDoc imaging system (BioRad, USA).
# GLT-1 and xCT expression were normalized against β-tubulin, a control loading protein. Imaging System and ImageJ software version 1.53a were used to quantify and analyze the expression of GLT-1 and xCT in the subregions of the mPFC and NAc. Data from water-control group were represented as 100% and all other values were expressed relative to this control to evaluate the changes in protein expression.
# The ratios for treated animals in the ethanol/saline and ethanol/MC-100093 groups were normalized to the mean ratios for the control group (water/saline group). The control ratio was set at 100, and the results from each of the treated groups were expressed as a percentage relative to the water/saline group value of 100%. We normalized the ethanol/saline and ethanol/MC-100093 groups data to water/saline group to reduce any differences of contrast with Western blots for each set of groups (control/water/saline, ethanol/saline, and ethanol/MC-100093 groups).
# All statistical analyses were conducted using GraphPad Prism (10). Two-way (mixed) ANOVA followed by Bonferroni multiple comparison post-hoc test was performed to analyze daily ethanol intake, average daily water intake and body weight. One-way ANOVA followed by Newman-Keuls post hoc tests were used to analyze Western blot data. All statistical analyses data were reported as a p<0.05 of significance.
# [2] = Ethanol-intake model (section C); format: in vivo, Male P rats
# Procedure: Male P rats were obtained from Indiana University School of Medicine (Indianapolis, IN, USA). P rats were ˜90 days old at the beginning of the drinking paradigms. P rats were used in this study as they fit the necessary criteria of ethanol preference. P rats may consume freely ethanol (15% and 30%, v/v) and achieve a pharmacologically blood alcohol concentration (BACs) of 50-200 mg % as shown in previous studies from Indiana University. Rats were housed in a room kept at 21° C. on a 12/12-hour light/dark cycle and had free access to water and food. All experimental procedures were approved by the Institutional Animal Care and Use Committee (IACUC) at University of Toledo under protocol #400160, in accordance with all guidelines of IACUC of the National Institute of Health, and the Guide for the Care and Use of Laboratory Animals.
# Rats were assigned to three groups prior to the start of the experiments based on their weights, and the average weights of each group were similar between all groups. Male P rats were divided into three groups: a) Control/water group was exposed to water for five weeks and received saline vehicle injection (i.p.) every 24 hours during Week 6 for a total of five days; b) Ethanol/saline group was exposed to free choice of ethanol (15% and 30%, v/v) as well as water for 5 weeks and received saline vehicle (i.p.) every 24 hours during Week 6 for a total of five days; c) Ethanol/MC-100093 group was exposed to free choice of ethanol (15% and 30%, v/v) as well as water for 5 weeks and received MC-100093 (100 mg/kg, i.p.) every 24 hours during Week 6 for 5 days (FIG. 16). […]
# The baseline was calculated by taking the average of the prior 5 weeks of water and ethanol consumption as rat weight. […] As weights of the bottles were recorded, the measurements were converted using g of ethanol intake/kg of body weight/day formula to determine ethanol consumption in g/kg of body weight. […]
# Statistical analyses were performed using GraphPad Prism Version 10. […] Statistical significance was determined by a p-value of or less than 0.05.
# [3] = female P rats, vs ethanol-saline and water-saline
# [4] = male P rats, vs ethanol-saline and water-saline
smiles,measurement,setting,value
C[C@@H](O)[C@H]1C(=O)N[C@@H]1[C@@H](C)C(=O)N1CCN(C)CC1 [MC-100093],GLT-1 expression in the NAc-core,[1]; female P rats,significant upregulation of GLT-1 expression
same,GLT-1 expression in the NAc-shell,[1]; female P rats,significant upregulation of GLT-1 expression
same,GLT-1 expression in the mPFC-IL,[1]; [3],upregulated GLT-1 expression
same,GLT-1 expression in the mPFC-PL,[1]; [3],significant upregulation of GLT-1 expression
same,GLT-1 expression in mPFC and NAc subregions (summary),"[1]; female and male P rats, vs ethanol-saline groups, 100 mg/kg",upregulated GLT-1 and xCT expression in mPFC and NAc subregions; also recorded: increasing GLT-1 and xCT expression in the mPFC and NAc subregions
same,GLT-1 expression in the mPFC-IL,[1]; male P rats,attenuated ethanol-induced downregulation of GLT-1 expression
same,GLT-1 expression in the NAc-core,[1]; [4],significantly increased
same,GLT-1 expression in the NAc-shell,[1]; [4],significantly increased
same,GLT-1 expression in the mPFC-PL,"[1]; male P rats, vs ethanol-saline and water-saline, 100 mg/kg",significantly upregulated GLT-1 expression; also recorded: significantly increased
same,Water intake,"[2]; male P rats exposed to ethanol, 100 mg/kg i.p., day 5, 100 mg/kg",significant increase in water intake; also recorded: drank significantly more water than the ethanol/saline group
same,Body weight,"[2]; male P rats, 100 mg/kg i.p. 5 days",no significant effect of Treatment by Day interaction on body weight
same,Ethanol intake,"[2]; male P rats, 100 mg/kg i.p. days 1-5 of Week 6, vs saline vehicle, 100 mg/kg",reduced ethanol intake after 5-week drinking regimen; also recorded: significant decrease in ethanol intake; also recorded: reduced ethanol intake in P rats staring 24 hours after the first injection of the drug through the five days regimen; also recorded: robust effect in ethanol intake
